Here are results for seven molecules from US8216777B2, “Compositions and methods for the treatment or prevention of chemoresistant neoplasia” (The Johns Hopkins University, priority 2006, dated 2012).

Data set [1] has as its system Renca renal carcinoma cells. As to the kind of experiment: cells. Type of data set: cell-based. From the text:
The effect of Nrf2 siRNA on the killing of Renca renal carcinoma cells was examined using etoposide, another widely used anticancer drug. To generate stable Renca cell lines that over-expressed Nrf2 siRNA and non-specific scramble siRNA (SC siRNA), the siRNA sequence was converted into short hairpin RNA (shRNA) and cloned in to a BLOCK-IT U6 RNAi Entry Vector (Invitrogen). The shRNA construct was packaged into a lentiviral vector, and transduced into Renca cell lines. Recombinants were selected with antibiotic. Renca cells stably expressing Nrf2 siRNA and non-specific LacZ siRNA were screened, and two clones expressing Nrf2 siRNA showing maximum knockdown of Nrf2 message were selected for further characterization. A cell viability assay was performed using these clones using etoposide as the chemotherapeutic drug. […] Cell viability was measured using the MTT [3-(4,5-dimethylthiazol-2-yl)-2,5-diphenyltetrazolium bromide] assay after 48 hours. Briefly, cells were transfected with 50 nM siRNAs two times within a 48 h interval and, 24 hours after the second transfection, cells were plated at a density of 7,500 cells/well in 180 μl of growth media in 96-well plates. […] After 96 h, drug cytotoxicity was evaluated by using a 3-(4,5-dimethylthiazol-2-yl)-2,5-diphenyl tetrazolium bromide (MTT; Sigma) reduction conversion assay. […]

In the next data set the test system is Nrf2. Description: ARE-luciferase transcriptional reporter assay. Type of data set: cell-based, mice. The note with it: Hepa cells stably transfected with pARE-luc; 5, 10, 50 μM. The procedure: In this example, a high throughput approach to screen different chemicals for their potency to inhibit Nrf2 activation is described. A cell based transcriptional reporter assay approach was used for the identification of agents that inhibit Nrf2 mediated transcription. Hepa cells, which are mice liver carcinoma cells, were stably transfected with the ARE-luciferase reporter vector, and plated on to 96 or […] well plates. After overnight incubation, the cells were pretreated for 1-3 hours with different compounds, and challenged with a known Nrf2 activator, sulforaphane and dibenzoylmethane (DBM). Luciferase activity was measured after 6 hours following the last treatment using a commercially available system.
In general terms: Reporter assays use an easily measured gene product as a stand-in for the process of interest.

For another data set, the system named is Nrf2 mRNA. Description: Nrf2 transcript degradation after siRNA transfection, real time TAQMAN PCR. The settings on record: A549; for relative potency among the Nrf2 siRNA duplexes: Nrf2 transcript, 24 and 48 hours. Type of data set: cell-based, human. The procedure:
To study the degradation of Nrf2 mRNA with siRNA in a time dependent manner, a pooled mixture of the generated duplexes were transfected into A549 human non-small cell lung carcinoma cell line. As a control, a non-specific scrambled siRNA duplex (SC) was used. Transfection vehicle alone was also used as control. Total RNA was isolated after 24, 48 and 72 hours. The amount of Nrf2 transcript was measured using real time TAQMAN PCR. […] These five ND duplexes were again screened using the same assay to measure amount of Nrf2 transcript as described above.
Total RNA was extracted from lung tissues and or cells using RNeasy kit (Qiagen, Valencia Calif.) and was quantified by UV absorbance spectrophotometry. The reverse transcription reaction was performed by using the Superscript First Strand Synthesis system (Invitrogen, Carlsbad Calif.) in a final volume of 20 μl containing 2 μg of total RNA, 100 ng of random hexamers, 1× reverse transcription buffer, 2.5 mM MgCl2, 1 mM dNTP, 10 units of RNaseOUT, 20 units of Superscript reverse transcriptase, and DEPC-treated water. Quantitative real time RT-PCR analyses of Human KEAP1, NRF2, GCLc, GCLm, GSR, PRDX1, GSTA3, GSTA2, NQO1, MRP1 and MRP2 were performed by using assay on demand primers and probe sets from Applied Biosystems. Assays were performed by using the ABI 7000 Taqman system (Applied Biosystems, Foster City Calif.). β-ACTIN was used for normalization.
The siRNA sequence targeting NRF2 corresponds to the coding region 1903-1921 nt (5′-[…]-3′; SEQ ID NO:27) in the NRF2 cDNA. The NRF2 siRNA duplex with the following sense and antisense sequences was used: 5′-GUAAGAAGCCAGAUGUUAAdUdU (sense; SEQ ID NO:50) and dUd[…]-5′ (antisense; SEQ ID NO:28). To confirm the specificity of the inhibition, the siCONTROL non-targeting siRNA 1 (NS siRNA; 5′[…] 3′; SEQ ID NO:29) with microarray-defined signature was used as a negative control. All of the siRNA duplexes were synthesized by Dharmacon Research, Inc. (Lafayette). Cells in the exponential growth phase were plated at a density of 0.2×10^6 cells/ml, grown for 12 h, and transfected twice at an interval of 48 h with 50 nM siRNA duplexes using Lipofectamine 2000 and OPTI-MEMI reduced serum medium (Invitrogen, Carlsbad Calif.) according to the manufacturer's recommendations. Concentrations of siRNAs were chosen on the basis of dose-response studies.

Consider `COc1cc([C@@H]2c3cc4c(cc3[C@@H](O[C@@H]3O[C@@H]5CO[C@@H](C)O[C@H]5[C@H](O)[C@H]3O)[C@H]3COC(=O)[C@H]23)OCO4)cc(OC)c1O` [Etoposide, etoposide], for which the viability at 250 µM in data set [1] (Renca, read-out: viable cells) was roughly 100%. The viability in data set [1] (mouse, 48 h, 250 μM) is recorded as −60%. As for `O=C(CC(=O)c1ccccc1)c1ccccc1` [dibenzoylmethane], the luciferase activity entry in the data set with Nrf2 is given as “increase in luciferase activity”.

As for `C[S+]([O-])CCCCN=C=S` (stereo not drawn) [sulforaphane], in the data set on Nrf2, the luciferase activity entry is given as “increase in luciferase activity”. Take “ND1: siRNA duplex, Nrf2 mRNA (NM_006164) position 1686-1704; sense SEQ ID NO: 1 CUAGAGCAAGAUUUAGAUCUU, antisense SEQ ID NO: 5 (antisense GAUCUAAAUCUUGCUCUAGUU; listed as RNA, chemistry not given here)”: the “relative potency among the Nrf2 siRNA duplexes” value with Nrf2 mRNA is given as “most potent”.

With “ND3: siRNA duplex, Nrf2 mRNA position 1903-1921; sense SEQ ID NO: 2 GUAAGAAGCCAGAUGUUAAUU, antisense SEQ ID NO: 6 (antisense UUAACAUCUGGCUUCUUACUU; listed as RNA, chemistry not given here)”, in the data set on Nrf2 mRNA, the “relative potency among the Nrf2 siRNA duplexes” value is listed as “most potent”. In the data set on Nrf2 mRNA (after 24 and 48 hours, individual duplexes), the “degradation of Nrf2 message” value is given as “maximum message degradation”. In the case of “ND4: siRNA duplex, Nrf2 mRNA position 1563-1581; sense SEQ ID NO: 3 AUGAUGUCCAAAGAGCAGUUU, antisense SEQ ID NO: 7 (antisense ACUGCUCUUUGGACAUCAUUU; listed as RNA, chemistry not given here)”, the “relative potency among the Nrf2 siRNA duplexes” value in the data set with Nrf2 mRNA was “most potent”.

Regarding “ND5: siRNA duplex, Nrf2 mRNA position 1485-1463; antisense SEQ ID NO: 4 UUCAUCUCUUGUGAGAUGAGCCUCC, sense SEQ ID NO: 8 (sense GGAGGCUCAUCUCACAGAGAUGAA; listed as RNA, chemistry not given here)”, the “relative potency among the Nrf2 siRNA duplexes” value with Nrf2 mRNA was “most potent”.
